Test results published in US20180251847A1, “METHOD OF PREDICTING THE TUMOR RESPONSE TO DNA METHYLATION INHIBITORS AND ALTERNATIVE THERAPEUTIC REGIMEN FOR OVERCOMING RESISTANCE” (PALACKY UNIVERSITY, OLOMOUC, priority 2014, published 2018).

System: HCT116 xenografts
Test: Anti-tumor activity in xenografted mouse model, parental HCT116
Format: in vivo, SCID mice
Details: parental HCT116 xenograft, DAC 2.5 mg/kg i.p., 10 doses, day 0-21
Excerpt: For in vivo validation of HCT116 resistance towards DAC and sensitivity of DAC resistant tumors to (+)-JQ1 treatment, we studied the anti-tumor activity of DAC and (+)-JQ1 in HCT116 parental versus a resistant cell clone R1.4 (HCT116_RDAC). Xenografts were established in 11-12 weeks-old female SCID mice, inoculated with 5×10^6 cells, s.c. on both sides of the chest. After 2 weeks, tumors were palpable (average tumor volume 20 mm^3) and mice were assigned into four groups (8 mice/group). Group I: vehicle control for DAC (10:90, DMSO: PBS) and Group II: DAC, 2.5 mg/kg by i.p. injection once a day for 14 days (5 days on, 2 days off), total 10 doses. […] Body weights of the animals were measured daily and tumor volume data were collected twice a week. […]
For determining the anti-tumor activity of the drugs, DAC and (+)-JQ1, tumor volume data for each group were transformed into relative tumor volumes followed by calculation of treatment to control ratio (T/C ratio) for each time point. […] Statistical significance of the data was determined by calculating bootstrap p-value, n=10000, one-sided test of H0: T/C ratio=1, H1: T/C ratio <1 (Jianrong Wu., Journal of Biopharmaceutical Statistics 2010; 20, 954-64). After day 21, statistical significance cannot be measured accurately due to decreased survival of animals in control group. […]

Nc1ncn([C@H]2C[C@H](O)[C@@H](CO)O2)c(=O)n1 [DAC, 2′-deoxy-5-azacytidine]
fold effect (anti-tumor activity, aAUC of T/C ratio): 2.9
